For one data set, the target named is T1, ATP-citrate synthase (Rattus norvegicus, UniProt P16638).
T1 sequence (P16638 whole entry): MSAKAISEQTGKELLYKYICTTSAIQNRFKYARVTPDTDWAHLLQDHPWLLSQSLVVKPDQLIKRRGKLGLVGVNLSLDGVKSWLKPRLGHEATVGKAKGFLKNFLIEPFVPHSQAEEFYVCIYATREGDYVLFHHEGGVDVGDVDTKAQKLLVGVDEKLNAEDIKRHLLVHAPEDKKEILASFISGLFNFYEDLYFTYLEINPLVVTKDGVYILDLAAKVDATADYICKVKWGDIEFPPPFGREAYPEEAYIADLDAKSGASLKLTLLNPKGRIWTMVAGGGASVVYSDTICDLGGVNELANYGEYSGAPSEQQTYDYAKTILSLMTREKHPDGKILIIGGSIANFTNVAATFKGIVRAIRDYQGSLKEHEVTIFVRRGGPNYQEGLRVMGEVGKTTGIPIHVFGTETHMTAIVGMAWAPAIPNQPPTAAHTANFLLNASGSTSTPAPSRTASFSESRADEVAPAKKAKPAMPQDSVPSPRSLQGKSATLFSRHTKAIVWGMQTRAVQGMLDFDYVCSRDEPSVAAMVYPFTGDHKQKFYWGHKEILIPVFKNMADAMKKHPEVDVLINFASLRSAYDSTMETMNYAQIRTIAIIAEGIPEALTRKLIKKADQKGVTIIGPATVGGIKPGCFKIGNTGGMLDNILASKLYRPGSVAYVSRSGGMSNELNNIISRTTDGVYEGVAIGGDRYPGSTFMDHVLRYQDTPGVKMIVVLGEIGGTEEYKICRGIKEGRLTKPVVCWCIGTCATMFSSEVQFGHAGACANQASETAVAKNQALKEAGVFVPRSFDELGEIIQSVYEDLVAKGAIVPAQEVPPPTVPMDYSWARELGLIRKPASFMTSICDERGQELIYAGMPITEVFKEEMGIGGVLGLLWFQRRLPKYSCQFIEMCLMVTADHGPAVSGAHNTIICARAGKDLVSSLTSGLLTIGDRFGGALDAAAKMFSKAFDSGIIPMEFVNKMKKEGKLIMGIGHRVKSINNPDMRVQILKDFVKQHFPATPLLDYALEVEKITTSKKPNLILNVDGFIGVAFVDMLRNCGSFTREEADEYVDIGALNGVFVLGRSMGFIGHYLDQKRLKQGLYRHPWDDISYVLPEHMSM
As to the kind of experiment: Reversible binding Ki was measured by the inhibition of the carbon-carbon bond cleavage activity against rat ATP-Citrate Lyase.

Data set [1] addresses T2, ATP-citrate synthase (Rattus norvegicus) (UniProt P16638).
T2 sequence (whole entry): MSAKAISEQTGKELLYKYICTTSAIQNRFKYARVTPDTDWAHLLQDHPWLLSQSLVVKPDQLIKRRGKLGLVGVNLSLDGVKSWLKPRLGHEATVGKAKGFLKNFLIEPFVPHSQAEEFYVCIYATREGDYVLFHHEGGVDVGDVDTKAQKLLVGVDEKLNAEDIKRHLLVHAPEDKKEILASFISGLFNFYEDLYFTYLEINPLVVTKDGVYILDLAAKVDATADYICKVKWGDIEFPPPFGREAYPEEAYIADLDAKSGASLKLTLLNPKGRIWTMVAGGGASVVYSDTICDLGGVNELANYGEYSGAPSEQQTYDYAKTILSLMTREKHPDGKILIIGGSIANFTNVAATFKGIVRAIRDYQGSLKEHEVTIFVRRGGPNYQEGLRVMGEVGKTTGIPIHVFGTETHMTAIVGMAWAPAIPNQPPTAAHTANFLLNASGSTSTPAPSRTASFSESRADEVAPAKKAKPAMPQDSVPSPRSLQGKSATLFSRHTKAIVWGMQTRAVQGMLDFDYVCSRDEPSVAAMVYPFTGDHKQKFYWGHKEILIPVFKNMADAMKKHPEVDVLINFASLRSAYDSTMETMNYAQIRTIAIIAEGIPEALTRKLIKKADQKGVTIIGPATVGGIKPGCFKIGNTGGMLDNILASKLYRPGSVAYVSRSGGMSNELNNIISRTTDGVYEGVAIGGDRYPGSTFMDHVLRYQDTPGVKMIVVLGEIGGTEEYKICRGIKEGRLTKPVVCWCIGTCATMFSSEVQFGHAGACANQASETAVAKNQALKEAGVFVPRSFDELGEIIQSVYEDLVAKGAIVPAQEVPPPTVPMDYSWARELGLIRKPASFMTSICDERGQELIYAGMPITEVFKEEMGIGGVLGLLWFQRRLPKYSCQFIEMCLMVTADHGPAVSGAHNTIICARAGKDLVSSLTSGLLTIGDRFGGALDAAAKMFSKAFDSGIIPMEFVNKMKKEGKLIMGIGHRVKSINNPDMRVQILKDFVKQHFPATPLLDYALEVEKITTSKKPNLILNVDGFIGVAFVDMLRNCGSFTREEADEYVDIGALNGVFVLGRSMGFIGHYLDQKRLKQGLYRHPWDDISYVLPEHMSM
As to the kind of experiment: Inhibitory activity against rat ATP-Citrate lyase measured in terms of Vmax.

Compound in data set [2]: C[S+](=N)([O-])C[C@@](O)(CC(=O)O)C(=O)O
As to the kind of experiment: Inhibitory activity against rat ATP-Citrate lyase measured in terms of Km.

Substrate in data set [3]: O=C(O)CC(O)(CC(=O)O)C(=O)O

This passage reports Ki, Relative Vmax and Km results from ChEMBL document CHEMBL1125568, “ATP-citrate lyase as a target for hypolipidemic intervention. Sulfoximine and 3-hydroxy-beta-lactam containing analogues of citric acid as potential tight-binding inhibitors” (J Med Chem, 1992).

Regarding `O=C(O)C[C@H](C[C@]1(O)CNC1=O)C(=O)O`, the Ki on ATP-citrate synthase was greater than 9 mM.

As to `O=C(O)C[C@H](C[C@@]1(O)CNC1=O)C(=O)O`, on ATP-citrate synthase, the Ki is greater than 20 mM.

As to `C[S+](=N)([O-])C[C@@](O)(CC(=O)O)C(=O)O` (stereo in doubt; 12a) [listing 1 of 2 here], the affinity on ATP-citrate synthase corresponds to a Ki of 0.25 mM.

In data set [1], `C[S+](=N)([O-])C[C@@](O)(CC(=O)O)C(=O)O` (stereo in doubt; 12a) [listing 2 of 2 here] showed a Relative Vmax of 0.25.

In the case of `C[S+](=N)([O-])C[C@@](O)(CC(=O)O)C(=O)O` (stereo in doubt; 12b) [listing 1 of 2 here], the Ki at ATP-citrate synthase is greater than 10 mM.

In the case of `C[S+](=N)([O-])C[C@@](O)(CC(=O)O)C(=O)O` (stereo in doubt; 12b) [listing 2 of 2 here], the Relative Vmax in data set [1] was less than 0.003.

B1: ATP-citrate synthase (Rattus norvegicus), P16638 (protein)
chain: MSAKAISEQTGKELLYKYICTTSAIQNRFKYARVTPDTDWAHLLQDHPWLLSQSLVVKPDQLIKRRGKLGLVGVNLSLDGVKSWLKPRLGHEATVGKAKGFLKNFLIEPFVPHSQAEEFYVCIYATREGDYVLFHHEGGVDVGDVDTKAQKLLVGVDEKLNAEDIKRHLLVHAPEDKKEILASFISGLFNFYEDLYFTYLEINPLVVTKDGVYILDLAAKVDATADYICKVKWGDIEFPPPFGREAYPEEAYIADLDAKSGASLKLTLLNPKGRIWTMVAGGGASVVYSDTICDLGGVNELANYGEYSGAPSEQQTYDYAKTILSLMTREKHPDGKILIIGGSIANFTNVAATFKGIVRAIRDYQGSLKEHEVTIFVRRGGPNYQEGLRVMGEVGKTTGIPIHVFGTETHMTAIVGMAWAPAIPNQPPTAAHTANFLLNASGSTSTPAPSRTASFSESRADEVAPAKKAKPAMPQDSVPSPRSLQGKSATLFSRHTKAIVWGMQTRAVQGMLDFDYVCSRDEPSVAAMVYPFTGDHKQKFYWGHKEILIPVFKNMADAMKKHPEVDVLINFASLRSAYDSTMETMNYAQIRTIAIIAEGIPEALTRKLIKKADQKGVTIIGPATVGGIKPGCFKIGNTGGMLDNILASKLYRPGSVAYVSRSGGMSNELNNIISRTTDGVYEGVAIGGDRYPGSTFMDHVLRYQDTPGVKMIVVLGEIGGTEEYKICRGIKEGRLTKPVVCWCIGTCATMFSSEVQFGHAGACANQASETAVAKNQALKEAGVFVPRSFDELGEIIQSVYEDLVAKGAIVPAQEVPPPTVPMDYSWARELGLIRKPASFMTSICDERGQELIYAGMPITEVFKEEMGIGGVLGLLWFQRRLPKYSCQFIEMCLMVTADHGPAVSGAHNTIICARAGKDLVSSLTSGLLTIGDRFGGALDAAAKMFSKAFDSGIIPMEFVNKMKKEGKLIMGIGHRVKSINNPDMRVQILKDFVKQHFPATPLLDYALEVEKITTSKKPNLILNVDGFIGVAFVDMLRNCGSFTREEADEYVDIGALNGVFVLGRSMGFIGHYLDQKRLKQGLYRHPWDDISYVLPEHMSM
As for B1, the Km was determined as 1300 µM in data set [2] and 110 µM in data set [3].
